Test results published in patent US8445490B2, “Compounds for the treatment of hepatitis C” (priority 2009, dated 2013).
Where two headings read alike, the source gives them in different places.

System: HCV pseudoparticles, genotype 1a (H77C) E1 and E2 envelope
Test: microbe, parasite or virus in culture
Assay type: cell-based, HCV genotype 1a (H77C isolate)
Conditions: Hepatitis C virus, Huh-7, 48 h, HCV pseudoparticles 1a (H77C), Huh7 cells, luciferase 2 days after infection
[1] = read-out: EC50 (nM) 1a (H77C), Table 1a, class
[2] = read-out: EC50 (nM) 1a (H77C), Table 1a
[3] = read-out: EC50 (nM) 1a (H77C), Table 1b, class
[4] = read-out: EC50 (nM) 1a (H77C), Table 1b

| Compound | EC50 [1] | EC50 [3] | other results |
| --- | --- | --- | --- |
| O=C1NCCNCCNc2nc(nc(OCC(F)(F)F)n2)Nc2ccc1cc2 [Example 0001] | 1000 to 5000 nM | – | EC50 [2]: 4200 nM |
| O=C1NCCCCCCCCNc2nc(nc(OCC(F)(F)F)n2)Nc2ccc1cc2 [Example 0002] | 0.1 to 100 nM | – | – |
| O=C1NCCCCCCCCCCNc2nc(nc(OCC(F)(F)F)n2)Nc2ccc1cc2 [Example 0003] | 100 to 1000 nM | – | EC50 [2]: 101 nM |
| O=C1NCCCOCCCCOCCCNc2nc(nc(OCC(F)(F)F)n2)Nc2ccc1cc2 [Example 0004] | 0.1 to 100 nM | – | EC50 [2]: 48.4 nM |
| CC(=O)N1CCNC(=O)c2ccc(cc2)Nc2nc(nc(OCC(F)(F)F)n2)NCC1 [Example 0005] | 1000 to 5000 nM | – | – |
| O=C1NCCCCNC(=O)C2(CC2)Nc2nc(nc(OCC(F)(F)F)n2)Nc2ccc1cc2 [Example 0006] | 1000 to 5000 nM | – | – |
| O=C1N[C@H]2CNC[C@@H]2C(=O)NCCCCCCOc2ccc(cc2)CNc2nc(nc(OCC(F)(F)F)n2)Nc2ccc1cc2 [Example 0007] | 0.1 to 100 nM | – | EC50 [2]: 8.31 nM |
| CN(C)C(N1C[C@@H]2NC(=O)c3ccc(cc3)Nc3nc(nc(OCC(F)(F)F)n3)NCc3ccc(cc3)OCCCCCCNC(=O)[C@H]2C1)=[N+](C)C [Example 0008] | 0.1 to 100 nM | – | – |
| CC(C)(C)OC(=O)N1CCN(CC2CNC(=O)c3ccc(cc3)Nc3nc(nc(OCC(F)(F)F)n3)NCc3ccc(cc3)OC/C=C/CO2)CC1 (stereo not shown) [Example 0009] | 100 to 1000 nM | – | – |
| O=C1NCC(CN2CCNCC2)OC/C=C/COc2ccc(cc2)CNc2nc(nc(OCC(F)(F)F)n2)Nc2ccc1cc2 (stereo not shown) [Example 0010] | 1000 to 5000 nM | – | – |
| O=C1NC(C2CCCNC2)C(=O)NCCCCCCOc2ccc(cc2)CNc2nc(nc(OCC(F)(F)F)n2)Nc2ccc1cc2 (stereo not shown) [Example 0011] | 0.1 to 100 nM | – | EC50 [2]: 62.8 nM |
| O=C1NCCCCCCCCCCCCNC(=O)c2ccc(cc2)Nc2nc(nc(OCC(F)(F)F)n2)NCc2ccc1cc2 [Example 0034] | 1000 to 5000 nM | – | – |
| O=C1NCCCOCCOCCOCCCNC(=O)c2ccc(cc2)Nc2nc(nc(OCC(F)(F)F)n2)NCc2ccc1cc2 [Example 0036] | 1000 to 5000 nM | – | – |
| O=C1NCCCCCCCCCNC(=O)c2ccc(cc2)Nc2nc(nc(OCC(F)(F)F)n2)NCc2ccc1cc2 [Example 0037] | 100 to 1000 nM | – | – |
| O=C1NCCCCCCCCCCCNC(=O)c2ccc(cc2)Nc2nc(nc(OCC(F)(F)F)n2)NCc2ccc1cc2 [Example 0038] | 100 to 1000 nM | – | EC50 [2]: 840 nM |
| O=C1CCCCCCCCC(=O)NCc2ccc(cc2)Nc2nc(nc(OCC(F)(F)F)n2)NCc2ccc(cc2)CN1 [Example 0064] | 100 to 1000 nM | – | EC50 [2]: 407 nM |
| O=C1NS(=O)(=O)C/C=C/CCOc2ccc(cc2)CNc2nc(nc(OCC(F)(F)F)n2)Nc2ccc1cc2 [Example 3004] | 1000 to 5000 nM | – | EC50 [2]: 2940 nM |
| O=C1NS(=O)(=O)C/C=C/CCCCOc2ccc(cc2)CNc2nc(nc(OCC(F)(F)F)n2)Nc2ccc1cc2 [Example 3006] | 1000 to 5000 nM | – | – |

| Compound | EC50 [1] | EC50 [3] | other results |
| --- | --- | --- | --- |
| O=C1CCNC(=O)c2ccc(cc2)Nc2nc(nc(OCC(F)(F)F)n2)NCc2ccc(cc2)OC/C=C/CS(=O)(=O)N1 [Example 3008] | 100 to 1000 nM | – | – |
| O=C1CCNC(=O)c2ccc(cc2)Nc2nc(nc(OCC(F)(F)F)n2)NCc2ccc(cc2)OC/C=C\CS(=O)(=O)N1 [Example 3009] | 100 to 1000 nM | – | – |
| O=C1NCCCNCCCOc2ccc(cc2)C2(CC2)Nc2nc(nc(OCC(F)(F)F)n2)Nc2ccc1cc2 [Example 5001] | – | 0.1 to 100 nM | – |
| CCOC(=O)N1CCCNC(=O)c2ccc(cc2)Nc2nc(nc(OCC(F)(F)F)n2)NC2(CC2)c2ccc(cc2)OCCC1 [Example 5002] | – | 0.1 to 100 nM | – |
| CCC(=O)N1CCCCNC(=O)c2ccc(cc2)Nc2nc(nc(OCC(F)(F)F)n2)NC2(CC2)c2ccc(cc2)OCCC1 [Example 5005] | – | 0.1 to 100 nM | – |
| CC(C)(C)NC(=O)N1CCCOc2ccc(cc2)CNc2nc(nc(OCC(F)(F)F)n2)Nc2ccc(cc2)C(=O)NCC1 [Example 6001] | – | 0.1 to 100 nM | – |
| CC(C)NC(=O)N1CCCOc2ccc(cc2)CNc2nc(nc(OCC(F)(F)F)n2)Nc2ccc(cc2)C(=O)NCC1 [Example 6003] | – | 0.1 to 100 nM | – |
| CC(C)OC(=O)N1CCCOc2ccc(cc2)CNc2nc(nc(OCC(F)(F)F)n2)Nc2ccc(cc2)C(=O)NCC1 [Example 6004] | – | 0.1 to 100 nM | – |
| CCOC(=O)N1CCCOc2ccc(cc2)CNc2nc(nc(OCC(F)(F)F)n2)Nc2ccc(cc2)C(=O)NCC1 [Example 6005] | – | 0.1 to 100 nM | – |
| CCC(=O)N1CCCOc2ccc(cc2)CNc2nc(nc(OCC(F)(F)F)n2)Nc2ccc(cc2)C(=O)NCC1 [Example 6007] | – | 0.1 to 100 nM | – |
| CC(C)C(=O)N1CCCOc2ccc(cc2)CNc2nc(nc(OCC(F)(F)F)n2)Nc2ccc(cc2)C(=O)NCC1 [Example 6008] | – | 0.1 to 100 nM | – |
| CC(C)(C)NC(=O)N1CCCNC(=O)c2ccc(cc2)Nc2nc(nc(OCC(F)(F)F)n2)NCc2ccc(cc2)OCCC1 [Example 6013] | – | 0.1 to 100 nM | – |
| CCOC(=O)N1CCCOc2ccc(cc2)CNc2nc(nc(OCC(F)(F)F)n2)Nc2ccc(cc2)C(=O)NCC(C)(C)C1 [Example 6033] | – | 0.1 to 100 nM | – |
| CCCN1CCCOc2ccc(cc2)CNc2nc(nc(OCC(F)(F)F)n2)Nc2ccc(cc2)C(=O)NCC(C)(C)C1 [Example 6039] | – | 0.1 to 100 nM | – |
| O=C1NCCCCNCCCNc2nc(nc(OCC(F)(F)F)n2)Nc2ccc1cc2 [Example 7001] | – | 1000 to 5000 nM | – |
| O=C1NCCCCCNCCNc2nc(nc(OCC(F)(F)F)n2)Nc2ccc1cc2 [Example 8002] | – | 1000 to 5000 nM | EC50 [4]: > 50000 nM |
| O=C1NCCCNCCCCCCCCNc2nc(nc(OCC(F)(F)F)n2)Nc2ccc1cc2 [Example 9001] | – | 100 to 1000 nM | EC50 [4]: 243 nM |
| CC(C)(C)OC(=O)N1CCCCCCCCNc2nc(nc(OCC(F)(F)F)n2)Nc2ccc(cc2)C(=O)NCCC1 [Example 9002] | – | 0.1 to 100 nM | – |
